Data as given in patent publication US20140088069A1, “NOVEL ANTIBACTERIAL COMBINATION THERAPY” (priority 2011, published 2014).
Like-named read-outs stand apart in the source and are kept apart here.

Tests used:
[1] = system: CA-MRSA USA300; assay: Checkerboard (FIC) analysis against CA-MRSA USA300; assay type: cell-based, Staphylococcus aureus; conditions: for MIC: Staphylococcus aureus
Protocol: (§1) Here a matrix of drug concentrations were tested in combinations at the concentrations shown (μg/mL). Greyscale indicates growth—darker is more growth, lighter is less growth. FIC index is a measure of synergy and is calculated as follows: FIC index=FIC (cefuroxime)+FIC (drug compound).
(§2) The combination of ticlopidine and cefuroxime was further tested as above against a variety of S. aureus strains as shown in Table 1 below.
FIC index=FIC (β-lactam)+FTC (ticlopidine). […]

[2] = system: S. aureus (Newman strain); assay: Checkerboard (FIC) analysis against S. aureus Newman; assay type: cell-based, Staphylococcus aureus; conditions: for MIC: Staphylococcus aureus
[3] = system: HA-MRSA USA600; assay: Checkerboard (FIC) analysis, HA-MRSA USA600; assay type: cell-based, Staphylococcus aureus; conditions: for MIC: Staphylococcus aureus
[4] = system: HA-MRSA USA100/800/NY; assay: Checkerboard (FIC) analysis, HA-MRSA USA100/800/NY; assay type: cell-based, Staphylococcus aureus; conditions: for MIC: Staphylococcus aureus
[5] = system: HA-MRSA; assay: Checkerboard (FIC) analysis, HA-MRSA (Table 1 r10); assay type: cell-based, Staphylococcus aureus; conditions: for MIC: Staphylococcus aureus
[6] = system: HA-MRSA USA200/EMRSA16; assay: Checkerboard (FIC) analysis, HA-MRSA USA200/EMRSA16; assay type: cell-based, Staphylococcus aureus; conditions: for MIC: Staphylococcus aureus
[7] = system: HA-MRSA USA500; assay: Checkerboard (FIC) analysis, HA-MRSA USA500; assay type: cell-based, Staphylococcus aureus; conditions: for MIC: Staphylococcus aureus
[8] = system: HA-MRSA; assay: Checkerboard (FIC) analysis, HA-MRSA (Table 1 r13); assay type: cell-based, Staphylococcus aureus; conditions: for MIC: Staphylococcus aureus
Protocol: (§3) Here a matrix of drug concentrations were tested in combinations at the concentrations shown (μg/mL). […] FIC index is a measure of synergy and is calculated as follows: FIC index=FIC (cefuroxime)+FIC (drug compound).

[9] = system: CA-MRSA USA400/MW2; assay: Checkerboard (FIC) analysis, CA-MRSA USA400/MW2; assay type: cell-based, Staphylococcus aureus; conditions: for MIC: Staphylococcus aureus
[10] = system: HA-MRSA EMRSA15; assay: Checkerboard (FIC) analysis, HA-MRSA EMRSA15; assay type: cell-based, Staphylococcus aureus; conditions: for MIC: Staphylococcus aureus
[11] = system: HA-MRSA; assay: Checkerboard (FIC) analysis, HA-MRSA (Table 1 r16); assay type: cell-based, Staphylococcus aureus; conditions: for MIC: Staphylococcus aureus
[12] = system: RN4220; assay: Checkerboard (FIC) analysis, RN4220; assay type: cell-based, Staphylococcus aureus
Protocol: as §3

[13] = system: SA178R1; assay: Checkerboard (FIC) analysis, SA178R1; assay type: cell-based, Staphylococcus aureus; conditions: for MIC: Staphylococcus aureus
[14] = system: MRSA; assay: Analogues in combination with cefuroxime against MRSA (FIC index); assay type: cell-based, Staphylococcus aureus; conditions: compound in combination with cefuroxime; MRSA (Table 5)
Protocol: A series of analogues were synthesized (as shown in Table 5) in which the thienopyridine ring was removed.
These were tested in combination with cefuroxime against MRSA and results are shown below (Table 6).

[15] = system: S. aureus strains
Protocol: as §1, §2

[16] = cefuroxime alone, read-out: MIC cefuroxime
[17] = thienopyridine alone, CA-MRSA USA300 (Table 4), read-out: MIC thienopyridine
[18] = in the presence of cefuroxime, CA-MRSA USA300 (Table 4)
[19] = ticlopidine alone, read-out: MIC ticlopidine

## CO/N=C(\C(=O)N[C@@H]1C(=O)N2C(C(=O)O)=C(COC(N)=O)CS[C@H]12)c1ccco1 [Cefuroxime]
[1]; CA-MRSA USA300 (Table 1), in the presence of ticlopidine
  FIC cefuroxime: 0.032
[1]; CA-MRSA USA300 (Table 1), cefuroxime alone, read-out: MIC cefuroxime
  MIC: 512 µg/mL
[1]; cefuroxime alone, CA-MRSA USA300 (Table 4), read-out: MIC Cefuroxime
  MIC: 256 µg/mL
[1]; antibiotic in combination with ticlopidine, CA-MRSA USA 300, FIC (β-lactam)+FIC (ticlopidine)
  FIC index: ≦0.13
[1]; in the presence of clopidogrel, CA-MRSA USA300 (Table 4)
  FIC cefuroxime: 0.063
[1]; in the presence of prasugrel, CA-MRSA USA300 (Table 4)
  FIC cefuroxime: 0.25
[1]; in the presence of ticlopidine, CA-MRSA USA300 (Table 4)
  FIC cefuroxime: 0.03
[2]; Newman, in the presence of ticlopidine
  FIC cefuroxime: 0.125
[2]; Newman, cefuroxime alone, read-out: MIC cefuroxime
  MIC: 2 µg/mL
[2]; antibiotic in combination with ticlopidine, S. aureus (Newman strain)
  FIC index: ≦0.25
[3]; [16]
  MIC: ≥ 1020 µg/mL
[3]; in the presence of ticlopidine
  FIC cefuroxime: 0.008
[4]; [16]
  MIC: 1020 µg/mL
[4]; in the presence of ticlopidine
  FIC cefuroxime: 0.125
[5]; HA-MRSA (Table 1 r10), in the presence of ticlopidine
  FIC cefuroxime: 0.250
[5]; HA-MRSA (Table 1 r10, no further strain name), cefuroxime alone, read-out: MIC cefuroxime
  MIC: > 2050 µg/mL
[6]; [16]
  MIC: 1020 µg/mL
[6]; in the presence of ticlopidine
  FIC cefuroxime: 0.032
[7]; [16]
  MIC: 32 µg/mL
[7]; in the presence of ticlopidine
  FIC cefuroxime: 1
[8]; HA-MRSA (Table 1 r13), in the presence of ticlopidine
  FIC cefuroxime: 0.250
[8]; HA-MRSA (Table 1 r13, no further strain name), cefuroxime alone, read-out: MIC cefuroxime
  MIC: > 2050 µg/mL
[9]; [16]
  MIC: 256 µg/mL
[9]; in the presence of ticlopidine
  FIC cefuroxime: 0.063
[10]; [16]
  MIC: 512 µg/mL
[10]; in the presence of ticlopidine
  FIC cefuroxime: 0.063
[11]; HA-MRSA (Table 1 r16), in the presence of ticlopidine
  FIC cefuroxime: 0.125
[11]; HA-MRSA (Table 1 r16, no further strain name), cefuroxime alone, read-out: MIC cefuroxime
  MIC: 2050 µg/mL
[12]; in the presence of ticlopidine
  FIC cefuroxime: 1
[13]; [16]
  MIC: 0.5 µg/mL
[13]; in the presence of ticlopidine
  FIC cefuroxime: 1

## Clc1ccccc1CN1CCc2sccc2C1 [Compound 1, 5-(2-Chloro-benzyl)-4,5,6,7-tetrahydro-thieno[3,2-c]pyridine]
[1]; CA-MRSA USA300 (Table 1), in the presence of cefuroxime
  FIC ticlopidine: 0.032
[1]; CA-MRSA USA300 (Table 1), ticlopidine + cefuroxime
  FIC index: ≦0.063
[1]; CA-MRSA USA300 (Table 1), ticlopidine alone, read-out: MIC ticlopidine
  MIC: > 256 µg/mL
[1]; [17]
  MIC: > 128 µg/mL
[1]; in combination with cefuroxime
  drug-drug interaction with cefuroxime (checkerboard secondary screen): synergistic interactions
[1]; [18]
  FIC thienopyridine: 0.13
[1]; thienopyridine in combination with cefuroxime, CA-MRSA USA300 (Table 4)
  FIC index: ≦0.16
[1]; ticlopidine in combination with cefuroxime, CA-MRSA USA 300, FIG. 2
  FIC index: ≤ 0.12
[2]; Newman, in the presence of cefuroxime
  FIC ticlopidine: 0.125
[2]; Newman, ticlopidine + cefuroxime
  FIC index: ≦0.250
[2]; Newman, ticlopidine alone, read-out: MIC ticlopidine
  MIC: > 256 µg/mL
[3]; [19]
  MIC: > 256 µg/mL
[3]; in the presence of cefuroxime
  FIC ticlopidine: 0.032
[3]; ticlopidine + cefuroxime
  FIC index: ≦0.040
[4]; [19]
  MIC: > 256 µg/mL
[4]; in the presence of cefuroxime
  FIC ticlopidine: 0.125
[4]; ticlopidine + cefuroxime
  FIC index: ≦0.250
[5]; HA-MRSA (Table 1 r10), in the presence of cefuroxime
  FIC ticlopidine: 0.032
[5]; HA-MRSA (Table 1 r10), ticlopidine + cefuroxime
  FIC index: ≦0.282
[5]; HA-MRSA (Table 1 r10), ticlopidine alone, read-out: MIC ticlopidine
  MIC: > 256 µg/mL
[6]; [19]
  MIC: > 256 µg/mL
[6]; in the presence of cefuroxime
  FIC ticlopidine: 0.063
[6]; ticlopidine + cefuroxime
  FIC index: ≦0.095
[7]; [19]
  MIC: > 256 µg/mL
[7]; in the presence of cefuroxime
  FIC ticlopidine: 1
[7]; ticlopidine + cefuroxime
  FIC index: ≦2
[8]; HA-MRSA (Table 1 r13), in the presence of cefuroxime
  FIC ticlopidine: 0.016
[8]; HA-MRSA (Table 1 r13), ticlopidine + cefuroxime
  FIC index: ≦0.266
[8]; HA-MRSA (Table 1 r13), ticlopidine alone, read-out: MIC ticlopidine
  MIC: > 256 µg/mL
[9]; [19]
  MIC: > 256 µg/mL
[9]; in the presence of cefuroxime
  FIC ticlopidine: 0.063
[9]; ticlopidine + cefuroxime
  FIC index: ≦0.125
[10]; [19]
  MIC: > 256 µg/mL
[10]; in the presence of cefuroxime
  FIC ticlopidine: 0.063
[10]; ticlopidine + cefuroxime
  FIC index: ≦0.125
[11]; HA-MRSA (Table 1 r16), in the presence of cefuroxime
  FIC ticlopidine: 0.063
[11]; HA-MRSA (Table 1 r16), ticlopidine + cefuroxime
  FIC index: ≦0.188
[11]; HA-MRSA (Table 1 r16), ticlopidine alone, read-out: MIC ticlopidine
  MIC: > 256 µg/mL
[12]; Staphylococcus aureus, ticlopidine alone
  MIC: > 128 µg/mL
[12]; in the presence of cefuroxime
  FIC ticlopidine: 1
[12]; ticlopidine + cefuroxime
  FIC index: ≦2
[13]; [19]
  MIC: > 128 µg/mL
[13]; in the presence of cefuroxime
  FIC ticlopidine: 1
[13]; ticlopidine + cefuroxime
  FIC index: ≦2
[14]
  FIC index: ≦0.125
[15]; ticlopidine + cefuroxime, including USA300
  methicillin-resistant strains (Canadian MRSA collection) in which potent synergy was retained: 7 of 10
[15]; ticlopidine alone against the S. aureus strains of Table 1
  antibacterial activity alone: no antibacterial activity alone
[15]; ticlopidine in combination with a β-lactam, even in β-lactam-resistant S. aureus
  potentiation of the activity of the β-lactams: over 32 fold

## Cc1ccccc1CN1CCc2ccccc2C1 [Compound 14, 2-(2-Methyl-benzyl)-1,2,3,4-tetrahydro-isoquinoline]
[14]
  FIC index: ≦0.125

## Fc1ccccc1CN1CCc2ccccc2C1 [Compound 15, 2-(2-Fluoro-benzyl)-1,2,3,4-tetrahydro-isoquinoline]
[14]
  FIC index: ≦0.187

## O=[N+]([O-])c1ccccc1CN1CCc2ccccc2C1 [Compound 16, 2-(2-Nitro-benzyl)-1,2,3,4-tetrahydro-isoquinoline]
[14]
  FIC index: ≦0.187

## FC(F)(F)c1ccccc1CN1CCc2ccccc2C1 [Compound 17, 2-(2-Trifluoromethyl-benzyl)-1,2,3,4-tetrahydro-isoquinoline]
[14]
  FIC index: ≦0.094

## COC(=O)C(c1ccccc1Cl)N1CCc2ccccc2C1 (stereo not drawn) [Compound 18, (2-Chloro-phenyl)-(3,4-dihydro-1H-isoquinolin-2-yl)-acetic acid methyl ester]
[14]
  FIC index: ≦0.187

## COC(=O)[C@H](c1ccccc1Cl)N1CCc2sccc2C1 [Compound 19, (+)-(S)-methyl 2-(2-chlorophenyl)-2-(6,7-dihydrothieno[3,2-c]pyridin-5(4H)-yl)acetate]
[1]; [17]
  MIC: > 128 µg/mL
[1]; [18]
  FIC thienopyridine: 0.13
[1]; thienopyridine in combination with cefuroxime, CA-MRSA USA300 (Table 4), listed as Clopidogrel
  FIC index: ≦0.20
[1]; thienopyridine in combination with cefuroxime, CA-MRSA USA300 (Table 4), listed as clopidogrel
  FIC index: ≤ 0.20
[14]
  FIC index: ≦0.187

## O=C(O)C(c1ccccc1Cl)N1CCc2sccc2C1 (stereo not drawn) [Compound 20]
[14]
  FIC index: ≦0.75

## COC(=O)C(c1ccccc1C(F)(F)F)N1CCc2ccccc2C1 (stereo not drawn) [Compound 21]
[14]
  FIC index: ≦0.125

## NC(=O)C(c1ccccc1C(F)(F)F)N1CCc2ccccc2C1 (stereo not drawn) [Compound 22]
[14]
  FIC index: ≦1

## O=C(O)C(c1ccccc1C(F)(F)F)N1CCc2ccccc2C1 (stereo not drawn) [Compound 23]
[14]
  FIC index: ≦2
